ChEMBL document CHEMBL4680201, “Design, synthesis, and pharmacological evaluation of 4- or 6-phenyl-pyrimidine derivatives as novel and selective Janus kinase 3 inhibitors” (Eur J Med Chem, 2020)
Calls of active or inactive are those of the source. The rule behind the calls is not given here.

Tests used:
[1] = biological target: Tyrosine-protein kinase JAK1 (Homo sapiens, UniProt P23458); assay: Inhibition of recombinant human GST-tagged JAK1 cytoplasmic domain (866 to 1154 residues) expressed in baculovirus expression system using TK-substrate-biotin preincubated for 5 mins followed by substrate addition and measured after 30 mins by HTRF assay
Sequence of Tyrosine-protein kinase JAK1 (P23458 whole entry, the tested form may be a part): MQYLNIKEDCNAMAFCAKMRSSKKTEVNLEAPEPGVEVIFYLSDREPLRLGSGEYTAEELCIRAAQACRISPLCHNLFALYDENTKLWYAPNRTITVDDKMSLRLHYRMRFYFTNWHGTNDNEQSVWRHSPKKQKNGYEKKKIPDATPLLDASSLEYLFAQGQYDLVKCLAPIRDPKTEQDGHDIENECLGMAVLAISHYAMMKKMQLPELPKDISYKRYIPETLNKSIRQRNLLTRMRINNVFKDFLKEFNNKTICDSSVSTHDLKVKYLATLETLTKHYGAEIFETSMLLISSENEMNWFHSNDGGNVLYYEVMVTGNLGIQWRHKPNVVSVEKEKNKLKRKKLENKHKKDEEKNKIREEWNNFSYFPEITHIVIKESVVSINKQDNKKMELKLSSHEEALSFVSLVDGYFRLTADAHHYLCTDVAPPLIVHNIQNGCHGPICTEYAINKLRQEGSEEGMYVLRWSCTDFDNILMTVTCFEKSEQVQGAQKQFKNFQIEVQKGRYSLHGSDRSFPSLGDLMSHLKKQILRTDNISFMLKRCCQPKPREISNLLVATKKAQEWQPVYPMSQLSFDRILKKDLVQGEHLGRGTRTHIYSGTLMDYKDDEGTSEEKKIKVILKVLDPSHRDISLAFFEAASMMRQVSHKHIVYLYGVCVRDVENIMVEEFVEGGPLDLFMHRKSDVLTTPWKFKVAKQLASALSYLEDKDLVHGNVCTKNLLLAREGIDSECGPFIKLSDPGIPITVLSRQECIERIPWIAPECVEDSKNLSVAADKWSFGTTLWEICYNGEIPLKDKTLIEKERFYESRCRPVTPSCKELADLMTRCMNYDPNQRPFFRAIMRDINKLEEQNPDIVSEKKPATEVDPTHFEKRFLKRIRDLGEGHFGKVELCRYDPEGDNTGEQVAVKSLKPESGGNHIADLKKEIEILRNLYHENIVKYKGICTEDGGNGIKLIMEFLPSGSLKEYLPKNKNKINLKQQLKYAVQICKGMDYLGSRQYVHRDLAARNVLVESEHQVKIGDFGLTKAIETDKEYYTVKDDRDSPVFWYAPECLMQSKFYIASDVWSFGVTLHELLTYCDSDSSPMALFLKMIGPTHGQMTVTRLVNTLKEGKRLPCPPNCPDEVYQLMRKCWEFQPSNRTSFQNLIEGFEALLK

[2] = biological target: T1, Tyrosine-protein kinase JAK3 (Mus musculus) (UniProt Q62137); assay: Inhibition of JAK3 in anti-CD3/-CD28 coated mouse T cells assessed as reduction in IL15-induced STAT5 phosphorylation at 10 uM preincubated for 1 hr followed by […] and measured after 30 mins by Western blot analysis; details: T cell
T1 sequence (whole entry): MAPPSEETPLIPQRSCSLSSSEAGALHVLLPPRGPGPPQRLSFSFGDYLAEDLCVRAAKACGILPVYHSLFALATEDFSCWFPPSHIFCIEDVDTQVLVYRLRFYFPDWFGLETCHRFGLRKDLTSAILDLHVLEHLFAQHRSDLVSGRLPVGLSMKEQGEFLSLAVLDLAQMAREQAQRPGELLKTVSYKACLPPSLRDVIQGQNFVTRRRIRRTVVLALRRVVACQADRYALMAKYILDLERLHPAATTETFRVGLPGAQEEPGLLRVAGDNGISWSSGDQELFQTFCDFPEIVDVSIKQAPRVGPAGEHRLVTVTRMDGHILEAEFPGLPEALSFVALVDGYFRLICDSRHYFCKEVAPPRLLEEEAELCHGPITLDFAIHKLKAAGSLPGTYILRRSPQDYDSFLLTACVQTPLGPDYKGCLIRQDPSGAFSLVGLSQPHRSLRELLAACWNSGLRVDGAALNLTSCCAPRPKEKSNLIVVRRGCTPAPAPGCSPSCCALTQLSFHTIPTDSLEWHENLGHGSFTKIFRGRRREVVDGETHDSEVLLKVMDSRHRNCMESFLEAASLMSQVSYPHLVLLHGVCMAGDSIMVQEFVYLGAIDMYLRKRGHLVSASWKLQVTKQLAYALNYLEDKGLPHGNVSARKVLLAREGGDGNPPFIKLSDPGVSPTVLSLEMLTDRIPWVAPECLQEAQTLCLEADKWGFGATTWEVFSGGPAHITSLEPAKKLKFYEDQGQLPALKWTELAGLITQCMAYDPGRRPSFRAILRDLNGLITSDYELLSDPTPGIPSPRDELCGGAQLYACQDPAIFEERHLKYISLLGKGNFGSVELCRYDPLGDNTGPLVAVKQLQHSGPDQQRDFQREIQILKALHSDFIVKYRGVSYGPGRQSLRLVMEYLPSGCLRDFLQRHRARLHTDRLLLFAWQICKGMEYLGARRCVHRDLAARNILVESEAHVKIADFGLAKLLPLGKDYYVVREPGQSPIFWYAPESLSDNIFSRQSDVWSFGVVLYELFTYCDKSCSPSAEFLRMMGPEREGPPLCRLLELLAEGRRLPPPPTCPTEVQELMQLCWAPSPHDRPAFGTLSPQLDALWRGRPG

[3] = biological target: T2, BMX (Cytoplasmic tyrosine-protein kinase BMX) (Homo sapiens, UniProt P51813); assay: Inhibition of recombinant human His-tagged full length BMX expressed in baculovirus expression system at 100 nM using Tyr 01 as substrate incubated for 60 mins by Z'-Lyte assay relative to control; details: probe Tyr 01
T2 sequence (P51813 whole entry): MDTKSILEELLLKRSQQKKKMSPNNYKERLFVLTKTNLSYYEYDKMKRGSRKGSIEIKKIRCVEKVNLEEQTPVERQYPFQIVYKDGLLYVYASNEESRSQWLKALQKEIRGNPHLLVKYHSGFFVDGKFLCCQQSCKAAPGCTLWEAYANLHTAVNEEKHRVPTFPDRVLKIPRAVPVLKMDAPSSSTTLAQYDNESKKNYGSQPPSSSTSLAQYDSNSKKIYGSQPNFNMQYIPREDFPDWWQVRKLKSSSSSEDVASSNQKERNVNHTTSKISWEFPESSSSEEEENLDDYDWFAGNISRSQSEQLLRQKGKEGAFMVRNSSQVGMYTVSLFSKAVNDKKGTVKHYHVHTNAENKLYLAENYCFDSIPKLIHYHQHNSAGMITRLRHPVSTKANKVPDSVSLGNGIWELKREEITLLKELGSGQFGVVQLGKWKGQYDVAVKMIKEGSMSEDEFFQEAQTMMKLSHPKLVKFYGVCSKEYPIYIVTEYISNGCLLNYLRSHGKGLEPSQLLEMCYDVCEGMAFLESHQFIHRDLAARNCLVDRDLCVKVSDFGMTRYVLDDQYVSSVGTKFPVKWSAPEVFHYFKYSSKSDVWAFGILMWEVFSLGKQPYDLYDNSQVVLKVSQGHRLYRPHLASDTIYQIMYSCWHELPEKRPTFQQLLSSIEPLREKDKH

[4] = biological target: BTK (Tyrosine-protein kinase BTK) (Homo sapiens, UniProt Q06187); assay: Inhibition of recombinant human His-tagged full length BTK expressed in baculovirus expression system at 100 nM using Tyr01 peptide as substrate incubated for 1 hr by Z'lyte assay relative to control; details: probe Tyr01 peptide
Sequence of BTK (Tyrosine-protein kinase BTK) (Q06187 whole entry, the tested form may be a part): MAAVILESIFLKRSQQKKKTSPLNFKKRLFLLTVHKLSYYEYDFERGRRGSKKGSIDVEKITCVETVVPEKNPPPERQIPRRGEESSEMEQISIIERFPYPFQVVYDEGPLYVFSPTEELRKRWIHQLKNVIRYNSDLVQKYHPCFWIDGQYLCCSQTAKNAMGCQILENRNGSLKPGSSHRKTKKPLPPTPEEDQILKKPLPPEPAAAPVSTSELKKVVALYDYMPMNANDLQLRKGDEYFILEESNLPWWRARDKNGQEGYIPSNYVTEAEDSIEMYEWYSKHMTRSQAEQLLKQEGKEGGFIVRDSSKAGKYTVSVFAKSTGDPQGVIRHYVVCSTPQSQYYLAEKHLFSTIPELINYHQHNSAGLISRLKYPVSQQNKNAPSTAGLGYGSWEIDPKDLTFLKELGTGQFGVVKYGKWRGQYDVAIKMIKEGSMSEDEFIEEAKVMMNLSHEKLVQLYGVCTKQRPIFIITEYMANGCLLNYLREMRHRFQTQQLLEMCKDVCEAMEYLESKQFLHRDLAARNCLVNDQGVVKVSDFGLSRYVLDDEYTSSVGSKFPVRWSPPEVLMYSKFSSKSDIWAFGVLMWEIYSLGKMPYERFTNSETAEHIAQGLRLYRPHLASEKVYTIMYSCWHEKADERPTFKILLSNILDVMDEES

[5] = biological target: TEK (Angiopoietin-1 receptor) (Homo sapiens, UniProt Q02763); assay: Inhibition of recombinant human GST-tagged TEK (817 to 1101 residues) expressed in baculovirus expression system at 100 nM using Tyr 05 as substrate incubated for 1 hr in presence of ATP by Z'-LYTE assay relative to control; details: probe Tyr 05
Sequence of TEK (Angiopoietin-1 receptor) (Q02763 whole entry, the tested form may be a part): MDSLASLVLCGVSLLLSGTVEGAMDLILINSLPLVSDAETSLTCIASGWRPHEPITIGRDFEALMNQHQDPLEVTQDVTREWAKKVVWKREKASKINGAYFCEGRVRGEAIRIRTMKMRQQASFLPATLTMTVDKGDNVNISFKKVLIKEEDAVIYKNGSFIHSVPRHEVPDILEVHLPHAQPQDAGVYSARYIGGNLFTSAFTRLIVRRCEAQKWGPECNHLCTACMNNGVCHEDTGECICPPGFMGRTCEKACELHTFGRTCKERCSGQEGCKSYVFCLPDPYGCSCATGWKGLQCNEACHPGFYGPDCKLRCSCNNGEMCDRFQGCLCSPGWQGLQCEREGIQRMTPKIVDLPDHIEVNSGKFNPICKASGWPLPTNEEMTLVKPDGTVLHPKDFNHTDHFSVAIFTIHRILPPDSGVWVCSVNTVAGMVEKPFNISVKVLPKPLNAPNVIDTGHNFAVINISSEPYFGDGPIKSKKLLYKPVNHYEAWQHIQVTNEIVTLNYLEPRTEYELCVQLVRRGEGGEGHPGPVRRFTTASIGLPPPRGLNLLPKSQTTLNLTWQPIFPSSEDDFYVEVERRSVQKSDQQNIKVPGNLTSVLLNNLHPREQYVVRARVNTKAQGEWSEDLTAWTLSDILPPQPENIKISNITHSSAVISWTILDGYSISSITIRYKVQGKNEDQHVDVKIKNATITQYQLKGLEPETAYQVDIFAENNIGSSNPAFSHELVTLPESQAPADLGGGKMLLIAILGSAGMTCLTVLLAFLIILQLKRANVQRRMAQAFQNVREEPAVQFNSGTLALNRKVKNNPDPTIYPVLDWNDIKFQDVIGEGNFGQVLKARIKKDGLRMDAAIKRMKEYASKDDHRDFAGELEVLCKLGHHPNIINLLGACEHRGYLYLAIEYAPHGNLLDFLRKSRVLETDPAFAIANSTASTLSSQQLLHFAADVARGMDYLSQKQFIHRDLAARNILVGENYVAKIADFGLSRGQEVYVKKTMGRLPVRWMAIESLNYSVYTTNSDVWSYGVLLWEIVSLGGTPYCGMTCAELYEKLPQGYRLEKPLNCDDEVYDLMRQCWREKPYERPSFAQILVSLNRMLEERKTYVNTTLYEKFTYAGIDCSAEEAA

[6] = biological target: RET (Proto-oncogene tyrosine-protein kinase receptor Ret) (Homo sapiens, UniProt P07949); assay: Inhibition of recombinant human GST-tagged RET (658 to 1114 residues) expressed in baculovirus expression system at 100 nM using Tyr 02 as substrate incubated for 1 hr in presence of ATP by Z'-LYTE assay relative to control; details: probe Tyr 02
Sequence of RET (Proto-oncogene tyrosine-protein kinase receptor Ret) (P07949 whole entry, the tested form may be a part): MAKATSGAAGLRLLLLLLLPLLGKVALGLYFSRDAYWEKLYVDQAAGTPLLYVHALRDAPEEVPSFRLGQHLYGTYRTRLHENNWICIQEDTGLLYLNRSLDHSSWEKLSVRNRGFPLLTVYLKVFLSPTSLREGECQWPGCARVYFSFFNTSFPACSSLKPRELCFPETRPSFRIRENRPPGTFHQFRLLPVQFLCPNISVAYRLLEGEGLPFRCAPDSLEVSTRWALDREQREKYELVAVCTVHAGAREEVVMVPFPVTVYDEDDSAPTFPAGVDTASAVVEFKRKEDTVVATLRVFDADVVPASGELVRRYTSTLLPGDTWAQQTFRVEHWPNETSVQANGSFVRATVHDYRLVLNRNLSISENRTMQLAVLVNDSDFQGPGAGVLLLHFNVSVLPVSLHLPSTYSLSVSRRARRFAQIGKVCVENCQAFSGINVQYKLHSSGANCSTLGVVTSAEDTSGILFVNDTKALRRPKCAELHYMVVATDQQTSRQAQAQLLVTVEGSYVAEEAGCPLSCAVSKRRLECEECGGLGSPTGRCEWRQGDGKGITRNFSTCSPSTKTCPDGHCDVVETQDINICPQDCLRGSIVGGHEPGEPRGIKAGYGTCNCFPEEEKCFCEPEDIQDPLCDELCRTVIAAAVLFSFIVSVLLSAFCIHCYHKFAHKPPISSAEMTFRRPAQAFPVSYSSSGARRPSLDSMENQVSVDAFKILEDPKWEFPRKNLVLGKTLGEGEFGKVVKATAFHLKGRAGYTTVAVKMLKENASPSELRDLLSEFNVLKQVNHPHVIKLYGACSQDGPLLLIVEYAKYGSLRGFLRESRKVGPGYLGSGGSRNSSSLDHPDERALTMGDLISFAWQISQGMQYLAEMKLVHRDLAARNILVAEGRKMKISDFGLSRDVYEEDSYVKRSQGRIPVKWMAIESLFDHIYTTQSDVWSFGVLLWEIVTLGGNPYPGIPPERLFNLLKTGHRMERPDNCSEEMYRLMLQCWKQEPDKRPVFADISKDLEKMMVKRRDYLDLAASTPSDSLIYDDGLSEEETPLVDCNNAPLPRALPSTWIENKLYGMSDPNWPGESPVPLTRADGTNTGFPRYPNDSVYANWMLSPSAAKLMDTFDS

[7] = AUC (0 to t) in ICR mouse at 10 mg/kg, iv administered as single dose by LC-MS/MS analysis; assay type: ADME, organism-based; design: dose 10 mg/kg; details: in vivo
[8] = AUC (0 to t) in ICR mouse at 30 mg/kg, po administered as single dose via gavage by LC-MS/MS analysis; assay type: ADME, organism-based; design: dose 30 mg/kg; details: in vivo
[9] = Plasma clearance in ICR mouse at 30 mg/kg, po administered as single dose via gavage by LC-MS/MS analysis; assay type: ADME, organism-based; details: in vivo
[10] = Terminal half life in ICR mouse at 30 mg/kg, po administered as single dose via gavage by LC-MS/MS analysis; assay type: ADME, organism-based; details: in vivo, read-out: beta t1/2 (converted)
[11] = system: Mus musculus; assay: Immunosuppressive activity in Balb/c mouse model of oxazolone-induced delayed type hypersensitivity assessed as reduction in ear swelling at 30 mg/kg, po measured after 7 days; assay type: functional, organism-based; details: time 7.0 day
[12] = system: Mus musculus; assay: Immunosuppressive activity in Balb/c mouse model of oxazolone-induced delayed type hypersensitivity assessed as reduction in neutrophil leukocyte infiltration at 30 mg/kg, po measured after 7 days by H and E staining based histopathological analysis; assay type: functional, organism-based; details: time 7.0 day
[13] = system: Mus musculus; assay: Immunosuppressive activity in Balb/c mouse model of oxazolone-induced delayed type hypersensitivity assessed as appearance of well structured tissue architecture at 30 mg/kg, po measured after 7 days by H and E staining based histopathological analysis; assay type: functional, organism-based; details: time 7.0 day

IC50 [1]: 1320 nM | inhibition [2]: Active | inhibition at 1 h, 0.1 µM [3]: 3.7% | inhibition at 1 h, 0.1 µM [4]: 6.3% | inhibition at 1 h, 0.1 µM [5]: 29.5% | inhibition at 1 h, 0.1 µM [6]: 2.9% | AUC(0-t) [7]: 1240 ng·h/mL | AUC(0-t) [8]: 889 ng·h/mL | CLz/F [9]: 1619 mL/min/kg | half-life [10]: 1.52 h
Compound: C=CC(=O)Nc1ccc(-c2ccnc(Nc3ccc(N4CCOCC4)cc3)n2)cc1
Activity [11]: Active | Activity [12]: Active | Activity [13]: Active
